For twelve molecules, logP results are on record in the SangsterLogP compilation.

For orientation: logP means a log measure of how a compound divides between an organic and an aqueous phase. A higher logP goes with higher lipophilicity. In the case of `CC(Cl)CCC(Cl)C(Cl)CCC(Cl)CCl` (configuration not stated), the lipophilicity (logP) was determined as 4.19.
The molecule `ClC(CCC(Cl)C(Cl)CCC(Cl)CC(Cl)(Cl)Cl)CC(Cl)(Cl)Cl` (configuration not stated) gave a logP of 6.72.
The molecule `ClCC(Cl)CCC(Cl)C(Cl)(Cl)CCC(Cl)CCl` (configuration not stated) came in with a logP of 4.2.
`ClCC(Cl)CCC(Cl)C(Cl)CCC(Cl)CC(Cl)(Cl)Cl` (configuration not stated) showed a logP of 5.4.
The value for `ClCC(Cl)CCCCCCC(Cl)CCl` (configuration not stated) was 5.01; that for `ClC(CCCCCCC(Cl)CC(Cl)(Cl)Cl)CC(Cl)(Cl)Cl` (configuration not stated) was 7.75.
The value for `ClC(CCCCCC(Cl)CC(Cl)(Cl)Cl)CC(Cl)(Cl)Cl` (configuration not stated) was 7.23; that for `CCCCC(Cl)C(Cl)CCC(Cl)CCl` (configuration not stated) was 4.93.
Turning to `CC(Cl)CCC(Cl)C(Cl)CCC(C)Cl` (configuration not stated), the lipophilicity (logP) was found to be 4.4.
The same measure for `ClC(CCCCC(Cl)CC(Cl)(Cl)Cl)CC(Cl)(Cl)Cl` (configuration not stated): 6.71; for `ClCC(Cl)CCC(Cl)C(Cl)CCC(Cl)CCl` (configuration not stated): 4.02; for `ClCC(Cl)CCCCCCC(Cl)CC(Cl)(Cl)Cl` (configuration not stated): 6.42.
